In publication PMC4971421, “Redox-Dependent Modulation of T-Type Ca^2+ Channels in Sensory Neurons Contributes to Acute Anti-Nociceptive Effect of Substance P” (Antioxidants & Redox Signaling, 2016):
Ends that are not written are not given here.

Assays:
[1] = tested on: small-diameter DRG neurons; test: DRG neuron excitability, perforated patch current clamp; assay type: cell-based, rat
Method: To knock down CaV3.2, DRGs were dissociated as described ([13]); immediately after dissociation, DRG pellets were resuspended in 900 μl DMEM (without GlutaMax I, serum or antibiotics), to which a mixture of 9 μl Lipofectamine RNAiMAX (Invitrogen) and either a mix of three anti-Cacna1h Stealth siRNAs (RSS350285, RSS350286, RSS350287; Life Technologies; 200 nM each) or a scrambled control oligo (Stealth RNAi™ siRNA Negative Control; Life Technologies; 200 nM) were added immediately before resuspension. Cultures were than plated in 50 μl droplets onto glass coverslips that were coated with poly-D-lysine and incubated for 5–6 h; the transfection media were then replaced with full DRG culture medium. Patch-clamp recordings were conducted 24–48 h after the transfection. The following primers were used for reverse transcription polymerase chain reaction (RT-PCR) analysis: • Cacna1h sense: 5′-[…]-3′ • Cacna1h AS: 5′-[…]-3′ • Gapdh sense: 5′-[…]-3′ • Gapdh AS: 5′-[…]-3′
Neuronal excitability was studied using the amphotericin B-perforated patch-clamp current technique ([13]). The extracellular solution contained the following (in mM): 160 NaCl, 2.5 KCl, 5 CaCl2, 1 MgCl2, 10 HEPES, and 8 Glucose. The intracellular solution contained the following (in mM): 145 KCl, 15 NaCl, 5 MgCl2, 10 HEPES, and 250 μg/ml Amphotericin B. The access resistance was typically within […]. APs were generated by an injection of 200 pA current for 1 s from a holding current of 0 pA. Rheobase was determined from a train of current steps from 0 to 400 pA delivered in 20-pA increments. Current clamp recordings were sampled at 12.5 kHz. Bridge balance adjustments were not applied, since only relative changes in Erest, AP number, and rheobase were investigated.

rat hind paw [2] = test: Nocifensive behavior after intraplantar hind-paw injection; assay type: in vivo; conditions: hind-paw injection 50 μl, 30 min
Method: Sprague–Dawley rats (body weight, 170–180 g) were grouped randomly and allowed to acclimate for at least 30 min in a transparent observation chamber before the experiment. Animals received a 50-μl intraplantar injection of ST101 (0.001–10 nmol/site), BK (10 nmol/site), RTG (1–10 nmol/site), Z944 (0.05–5 nmol/site), SP (0.5–5 nmol/site), or saline, respectively, into the right hind paw. For evaluation of the acute “spontaneous” pain, animals were video-recorded for 30 min after the injection and protective (“nocifensive”) behavior was analyzed as time spent licking, biting, lifting, and flinching the injected paw. The analyses were performed by an observer who was unaware of treatment allocations. In the pre-injection experiments, the right hind paw of the animal received a pre-injection of 50 μl Z944 (0.05–0.5 nmol/site), RTG (1–10 nmol/site), SP (0.5 nmol/site), Z944 (0.05–0.5 nmol/site)+RTG (1 nmol/site), or saline; 5 min later, on the same paw, the animal received a further 50-μl injection of BK (10 nmol/site) together with the pre-injection drug mix. Nocifensive behavior was analyzed as described earlier.

rat hind paw [3] = test: Hargreaves test, paw withdrawal latency to noxious heat; assay type: in vivo; conditions: hind-paw injection 0.001 nmol/site; 8 min after injection
Method: For measurement of thermal hyperalgesia, the change in the latency of hind-paw withdrawal in response to noxious heat was recorded using the Hargreaves’ plantar method (Ugo Basile) at 8 min after the hind-paw injection of drugs; the heat source was set to 25% of the maximal intensity.

[4] = tested on: T-type Ca^2+ channels (LVA Ca^2+ current) in DRG neurons; test: LVA (T-type) Ca2+ current, whole-cell patch clamp, cultured small-diameter DRG neurons; assay type: cell-based, rat; conditions: 1 nM; mean ± SEM, n = 7; SEM
Method: (§1) DRG neurons from adult male Sprague–Dawley rats (170–180 g) were dissociated as previously described ([13], [29]) and cultured in DMEM supplemented with GlutaMax I, 10% fetal calf serum, penicillin (50 U/ml), and streptomycin (50 μg/ml) on glass coverslips that were coated with poly-D-lysine for 2–5 days in a humidified incubator (37°C, 5% CO2). No growth factors were added to the culture media. HEK 293 cells were cultured in the same DMEM media; cells were passaged every 2 days. Human NK1 receptor (GenBank accession No. AY462098) complementary DNA (cDNA) was from the Missouri Science and Technology cDNA Resource Center. WtCaV3.1 (GenBank accession No. AF027984), wtCaV3.2 (GenBank accession No. AF051946), CaV3.1Q172H, and CaV3.2H191Q were kindly provided by Dr E. Perez-Reyes (University of Virginia). HEK293 cells were transfected using Lipofectamine 2000 (Invitrogen) according to the manufacturer's instructions. ST101 was synthesized in house; Z944 was from Toronto Research Chemicals; PTX was from Enzo Life Science; and FluoZin-3AM was from Life Technologies. All other chemicals were from Sigma.
All recordings were made using Multiclamp 700B amplifier in combination with pCLAMP 10.4 software (Molecular Devices). Voltage-clamp recordings from DRG neurons were made using whole-cell patch clamp. The standard bath solution contained the following (in mM): 150 TEA-Cl; 2.5 CsCl; 2.5 CaCl2; 10 HEPES; 0.5 MgCl2; and 10 glucose (pH 7.4 adjusted with CsOH). The standard pipette solution contained the following (in mM): 110 CsCl; 3 MgCl2; 10 EGTA; 10 HEPES; 3 Mg-ATP; and 0.6 GTP (pH 7.4 adjusted with CsOH). The access resistance was typically within 4–8 MΩ. T-type calcium currents (LVA) were measured by 50 ms square voltage pulses to −40 mV from a holding potential of −90 mV. HVA currents were measured by 200 ms square voltage pulses to 0 mV from a holding potential of −90 mV.
where y is the current inhibition; A1 and A2 are the maximum and minimum effects, respectively; x is the S9SP concentration; and nH is the Hill coefficient.

[5] = tested on: voltage-gated Na^+ current in DRG neurons; test: Voltage-gated Na+ current in DRG neurons; assay type: cell-based, rat; conditions: 1 nM
rat hind paw [6] = test: Cotton swab test (gentle touch); assay type: in vivo; conditions: 50 μl; 0.001 nmol/site
Method: (§2) For measurement of sensitivity to gentle touch and mechanical hyperalgesia, two methods were used. (i) Cotton swab test was performed as previously described ([53]). Briefly, rats were allowed to acclimate in a cage with a wire mesh bottom for at least 30 min and then were manually probed with a “cotton swab” pulled from a Q-tip (to approximately three times the original size). A swab was applied in a sweeping motion underneath the rats’ paws, and the withdrawal responses were recorded. Five sweeps were applied in each test, with at least 10 s between each sweep; withdrawal score was calculated as a percentage of positive responses. (ii) The von Frey test was performed using a calibrated range of filaments with different bending forces (2, 4, 6, 8, 10, and 15 g; Stoelting Co.). A single filament was applied perpendicularly to the plantar surface of the hind paw for five times, with an interval of 5 s, and it was scored for withdrawal responses. Each force was probed five times, the number of withdrawals out of five trials was counted, and the percentage of withdrawal responses was calculated. Both types of assays were performed 8 min after the hind-paw drug injection.

CaV3 = conditions: cited from earlier work
Method: The T-type Ca^2+ current is an important regulator of sensory neuron excitability ([10], [17], [18], [20], [23], [24], [51], [71], [75]). […] Z944 (1 μM) inhibited LVA curren ...

[7] = tested on: high-voltage-activated (HVA) Ca^2+ currents in DRG neurons; test: HVA Ca2+ current, whole-cell patch clamp, DRG neurons; assay type: cell-based, rat; conditions: 1 nM
Method: as §1, with “ST101 was synthesized in house; Z944 was from Toronto Research Chemicals; PTX was from Enzo Life Science; and FluoZin-3AM was from Life Technologies. All other chemicals were from Sigma.” left out
All recordings were made using Multiclamp 700B amplifier in combination with pCLAMP 10.4 software (Molecular Devices). […] T-type calcium currents (LVA) were measured by 50 ms square voltage pulses to −40 mV from a holding potential of −90 mV. HVA currents were measured by 200 ms square voltage pulses to 0 mV from a holding potential of −90 mV.

[8] = tested on: delayed-rectifier K^+ current in DRG neurons; test: Delayed-rectifier K+ current in DRG neurons; assay type: cell-based, rat; conditions: 1 nM
rat hind paw [9] = test: von Frey test; assay type: in vivo; conditions: 50 μl; 0.001 nmol/site; filaments 2–15 g; 8 min after injection
Method: as §2

Compound | AP number ([1]; 250 nM) | Erest ([1]; 250 nM) | rheobase ([1]; 250 nM) | nocifensive behavior (rat hind paw [2]; 10 nmol/site) | resting membrane potential (Erest) [1] | action potential (AP) firing ([1]; 200 pA for 1 s) | small DRG neuron excitability ([1]; perforated current clamp) | effect on Erest, AP number, or rheobase in Cacna1h knocked-down neurons ([1]; siRNA against Cacna1h) | paw withdrawal latency on radiant heat exposure (rat hind paw [3]) | enhancement of peak LVA current [4] | effect on voltage-gated Na^+ current [5] | sensitivity to light touch, cotton swab assay (rat hind paw [6]) | EC50, CaV3 potentiation (CaV3) | nocifensive behavior (rat hind paw [2]; 0.001–10 nmol/site) | effect on HVA current [7] | effect on delayed-rectifier K^+ current [8] | response to von Frey filament stimulation (rat hind paw [9])
RPPGFSPFR [BK, bradykinin, pro-algesic signaling peptide] | increased | depolarized | significantly reduced | strong nocifensive response | – | – | – | – | – | – | – | – | – | – | – | – | –
O=C1N=C2C=CC=CN2C12Cc1ccccc1C2 [ST101, spiro[imidazo[1,2-a]pyridine-3,2-indan]-2(3H)-one] | – | – | – | – | depolarized | significantly increased | increased | neither Z994 nor ST101 produced any significant effect | significantly reduced | 50.6% ± 14.1% | no effect | ineffective | sub-nanomolar range | moderate but significant protective effect | without an effect | no effect | greatly increased response rates
